In patent US6579881B2 (Eisai Co., Ltd., priority 1997, dated 2003):

Assays:
serotonin 2 receptor = serotonin 2 receptor (Rattus norvegicus, UniProt P14842); test: Binding test on [3H] ketanserin (serotonin 2 receptor); conditions: [3H] ketanserin 0.3 nM, receptor fraction of rat cerebral cortex; read-out: 5HT2
serotonin 1A receptor = biological target: T1, serotonin 1A receptor (Rattus norvegicus, UniProt P19327); test: Binding test on [3H] 8-hydroxy-dipropylaminotetralin (serotonin 1A receptor); conditions: [3H] 8-OH-DPAT 0.5 nM, receptor fraction of rat hippocampus; read-out: 5HT1a
T1 construct: To the receptor fraction of the hippocampus were added a test compound and 0.5 nM of [^3H]; 8-hydroxy-dipropylaminotetralin; from tissue; host or cells: SD rat hippocampus, membrane (receptor) fraction
T1 sequence (P19327 1-422): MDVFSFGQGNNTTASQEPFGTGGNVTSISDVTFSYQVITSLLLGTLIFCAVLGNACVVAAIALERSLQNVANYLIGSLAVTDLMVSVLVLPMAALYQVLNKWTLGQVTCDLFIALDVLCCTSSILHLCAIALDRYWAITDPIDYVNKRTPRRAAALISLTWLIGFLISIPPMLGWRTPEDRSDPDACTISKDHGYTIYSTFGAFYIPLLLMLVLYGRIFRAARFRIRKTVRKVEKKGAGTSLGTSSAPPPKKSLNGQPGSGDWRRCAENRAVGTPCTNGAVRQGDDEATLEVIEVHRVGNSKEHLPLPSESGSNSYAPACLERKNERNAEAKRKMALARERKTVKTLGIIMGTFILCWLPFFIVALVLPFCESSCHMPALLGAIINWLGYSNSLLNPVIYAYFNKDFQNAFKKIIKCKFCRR

Sequence of serotonin 2 receptor (P14842 whole entry): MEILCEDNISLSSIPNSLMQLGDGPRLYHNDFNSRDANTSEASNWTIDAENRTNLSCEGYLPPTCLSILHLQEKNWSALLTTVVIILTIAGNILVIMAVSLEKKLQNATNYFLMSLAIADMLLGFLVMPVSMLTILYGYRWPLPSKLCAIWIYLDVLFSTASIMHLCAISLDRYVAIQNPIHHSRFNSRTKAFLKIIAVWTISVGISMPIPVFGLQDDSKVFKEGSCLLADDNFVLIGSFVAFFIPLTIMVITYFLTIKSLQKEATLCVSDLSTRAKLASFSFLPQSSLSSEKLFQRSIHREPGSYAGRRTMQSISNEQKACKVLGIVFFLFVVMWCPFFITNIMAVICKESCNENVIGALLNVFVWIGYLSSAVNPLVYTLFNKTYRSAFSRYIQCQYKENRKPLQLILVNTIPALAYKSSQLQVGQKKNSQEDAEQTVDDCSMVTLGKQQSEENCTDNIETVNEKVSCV

| Ki (serotonin 2 receptor) | Ki (serotonin 1A receptor) | Compound |
| --- | --- | --- |
| 30.9 nM | 19.6 nM | COc1cc2c(cc1Cl)CCN2C1CCN(CCc2ccc(F)cc2)CC1 [Example 219, 1-[1-(4-fluorophenethyl)piperidin-4-yl]-5-chloro-6-methoxyindoline] |
| 0.41 nM | 0.17 nM | Fc1ccc(CCN2CCC(N3CCc4ccc(Cc5ccncc5)cc43)CC2)cc1 [Example 179, 1-[1-(4-fluorophenethyl)piperidin-4-yl]-6-(4-pyridylmethyl)indoline] |
| 52.9 nM | > 200 nM | CCN1CCC(N2CC(CCc3cccc(F)c3)c3ccccc32)CC1 (centres unmarked) [Example 247, 1-(1-ethylpiperidin-4-yl)-3-(3-fluorophenethyl)indoline] |
| 5.3 nM | 71.2 nM | OC[C@H]1CN(CCc2ccc(F)cc2)CC[C@@H]1N1CCc2ccccc21 (relative stereo) [Example 82, trans-1-[1-(4-fluorophenethyl)-3-hydroxymethylpiperidin-4-yl]indoline] |
| 2.5 nM | > 200 nM | CCN1CCC(N2CC(Cc3ccc(F)cc3)c3ccccc32)CC1 (centres unmarked) [Example 244, 1-(1-ethylpiperidin-4-yl)-3-(4-fluorobenzyl)indoline] |
| 26.9 nM | 13.5 nM | Fc1cccc(CCN2CCC(N3CCc4ccccc43)CC2)c1 [Example 8, 1-[1-(3-fluorophenethyl)piperidin-4-yl]indoline] |
| 12.8 nM | 34.3 nM | Fc1ccccc1CCN1CCC(N2CCc3ccccc32)CC1 [Example 7, 1-[1-(2-fluorophenethyl)piperidin-4-yl]indoline] |
| 6.2 nM | 3.4 nM | OCc1ccc2c(c1)N(C1CCN(CCc3ccc(F)cc3)CC1)CC2 [Example 136, 1-[1-(4-fluorophenethyl)piperidin-4-yl]-6-hydroxymethylindoline] |
| 6 nM | 2.4 nM | Oc1ccc2c(c1)N(C1CCN(CCc3ccc(F)cc3)CC1)CC2 [Example 104, 1-[1-(4-fluorophenethyl)piperidin-4-yl]-6-hydroxyindoline] |
| 1.3 nM | 0.38 nM | CC(=O)NCc1ccc2ccn(C3CCN(CCc4ccc(F)cc4F)CC3)c2c1 [Example 357, 1-[1-(2,4-difluorophenethyl)piperidin-4-yl]-6-acetamidomethylindole] |
| 4.73 nM | 14.6 nM | COc1ncccc1Cc1ccc2c(c1)N(C1CCN(CCc3ccc(F)cc3)CC1)CC2 [Example 185, 1-[1-(4-fluorophenethyl)piperidin-4-yl]-6-[1-(2-methoxypyridin-3-yl)methyl]indoline] |
| 15.7 nM | 21.9 nM | Nc1ccc(CCN2CCC(N3CCc4ccccc43)CC2)cc1 [Example 30, 1-[1-(4-aminophenethyl)piperidin-4-yl]indoline] |
| 27.6 nM | > 200 nM | CCN1CCC(N2CC(c3ccc(F)cc3)c3ccccc32)CC1 (centres unmarked) [Example 240, 1-(1-ethylpiperidin-4-yl)-3-(4-fluorophenyl)indoline] |
| 11.2 nM | 1 nM | CN(c1ccc2c(c1)N(C1CCN(CCc3ccc(F)cc3)CC1)CC2)S(C)(=O)=O [Example 120] |
| 1.33 nM | 14.8 nM | O=C(Cc1ccc2c(c1)N(C1CCN(CCc3ccc(F)cc3)CC1)CC2)N1CCCC1 [Example 155, 1-[1-(4-fluorophenethyl)piperidin-4-yl]-6-(tetramethylenecarbamoylmethyl)indoline] |
| 7.75 nM | 2.41 nM | CC(=O)N(C)Cc1ccc2c(c1)N(C1CCN(CCc3ccc(F)cc3)CC1)CC2 [Example 163, 1-[1-(4-fluorophenethyl)piperidin-4-yl]-6-N-methylacetamidomethylindoline] |
| 28.8 nM | > 200 nM | FC(F)(F)c1ccc(CCN2CCC(N3CCc4ccccc43)CC2)cc1 [Example 27, 1-[1-(4-trifluoromethylphenethyl)piperidin-4-yl]indoline] |
| 1.15 nM | 5.73 nM | OC(c1ccc2c(c1)N(C1CCN(CCc3ccc(F)cc3)CC1)CC2)c1cscn1 (centres unmarked) [Example 195, 1-[1-(4-fluorophenethyl)piperidin-4-yl]-6-[1-(4-thiazolyl)-1-hydroxymethyl]indoline] |
| 3.3 nM | 1.1 nM | Fc1ccc(CCN2CCC(N3CCc4cc5scnc5cc43)CC2)cc1 [Example 234, 1-[1-(4-fluorophenethyl)piperidin-4-yl]thiazolo[5,4-f]indoline] |
| 74.2 nM | 5.5 nM | CNc1ccc2c(c1)N(C1CCN(CCc3ccc(F)cc3)CC1)CC2 [Example 111, 1-[1-(4-fluorophenethyl)piperidin-4-yl]-6-methylaminoindoline] |
| 1.7 nM | 20.7 nM | OCc1cncc(CCN2CCC(N3CCc4ccccc43)CC2)c1 [Example 56, 1-{1-[2-(3-hydroxymethylpyridin-5-yl)ethyl]piperidin-4-yl}indoline] |
| 4.93 nM | 2.5 nM | Fc1ccc(CCN2CCC(N3CCc4ccc(Cn5cccc5)cc43)CC2)cc1 [Example 210, 1-[1-(4-fluorophenethyl)piperidin-4-yl]-6-(pyrrol-1-yl)methylindoline] |
| 0.92 nM | 0.25 nM | Fc1ccc(CCN2CCC(N3CCc4ccc(Cc5cccnc5)cc43)CC2)cc1 [Example 177, 1-[1-(4-fluorophenethyl)piperidin-4-yl]-6-[1-(3-pyridyl)methyl]indoline] |
| 0.35 nM | 1.49 nM | Fc1ccc(CCN2CCC(N3CCc4ccc(Cc5ccccn5)cc43)CC2)cc1 [Example 175, 1-[1-(4-fluorophenethyl)piperidin-4-yl]-6-[1-(2-pyridyl)methyl]indoline] |
| 48.8 nM | 8.07 nM | N#CCc1ccc2c(c1)N(C1CCN(CCc3ccc(F)cc3)CC1)CC2 [Example 145, 1-[1-(4-fluorophenethyl)piperidin-4-yl]-6-cyanomethylindoline] |
| 5.13 nM | 2.57 nM | O=C1CCCN1Cc1ccc2c(c1)N(C1CCN(CCc3ccc(F)cc3)CC1)CC2 [Example 202, 1-[1-(4-fluorophenethyl)piperidin-4-yl]-6-(2-pyrrolidon-1-yl)methylindoline] |
| 0.1 nM | 0.2 nM | CC(=O)NCc1ccc(CCN2CCC(n3ccc4ccccc43)CC2)cc1 [Example 288, 1-[1-(4-acetamidomethylphenethyl)piperidin-4-yl]indole] |
| 37.9 nM | 4.2 nM | OCCOc1cccc(CCN2CCC(N3CCc4ccccc43)CC2)c1 [Example 43, 1-{3-[(2-hydroxyethoxy)phenethyl]piperidin-4-yl}indoline] |
| 52.4 nM | 0.12 nM | Fc1ccc(CCN2CCC(N3CCc4ccc(-c5nccs5)cc43)CC2)cc1 [Example 172, 1-[1-(4-fluorophenethyl)piperidin-4-yl]-6-(2-thiazolyl)indoline] |

| Compound | Ki (serotonin 2 receptor) | Ki (serotonin 1A receptor) |
| --- | --- | --- |
| Fc1ccc(CCN2CCC(N3CCc4ccc(-c5ccccn5)cc43)CC2)cc1 [Example 171, 1-[1-(4-fluorophenethyl)piperidin-4-yl]-6-(2-pyridyl)indoline] | 178 nM | 0.39 nM |
| O=C(c1ccc2c(c1)N(C1CCN(CCc3ccc(F)cc3)CC1)CC2)n1cccc1 [Example 126, 1-[1-(4-fluorophenethyl)piperidin-4-yl]-6-(1-pyrrolylcarbonyl)indoline] | 129 nM | 1.23 nM |
